Assay results: patent US8551999B2, “Heterocyclic compound and pharmaceutical composition thereof” (Otsuka Pharmaceutical Co., Ltd., priority 2007, dated 2013)

Row | melting point | SMILES
1 | 200 to 201 °C | Br.CN(C(=O)c1ccc(C(F)(F)F)cc1)c1ccc(Oc2cccc3cc(C(=O)N4CCN(Cc5ccc(C#N)cc5)CC4)n(C)c23)nc1 [Example 324, N-(6-{2-[4-(4-Cyanobenzyl)piperazine-1-carbonyl]-1-methyl-1H-indol-7-yloxy}pyridin-3-yl)-N-methyl-4-trifluoromethylbenzamide hydrobromide]
2 | 139 to 141 °C | COc1ccc(CN2CCN(C(=O)c3cc4c(Oc5ccc(N(C)C(=O)c6ccc(C(F)(F)F)cc6)cn5)cccc4n3C)CC2)cc1.O=C(O)C(=O)O [Example 325, N-(6-{2-[4-(4-Methoxybenzyl)piperazine-1-carbonyl]-1-methyl-1H-indol-4-yloxy}pyridin-3-yl)-N-methyl-4-trifluoromethylbenzamide oxalate]
3 | 273 to 276 °C | Br.CN(C(=O)c1ccc(C(F)(F)F)cc1)c1ccc(Oc2cccc3c2cc(C(=O)N2CCN(Cc4ccc(C#N)cc4)CC2)n3C)nc1 [Example 326, N-(6-{2-[4-(4-Cyanobenzyl)piperazine-1-carbonyl]-1-methyl-1H-indol-4-yloxy}pyridin-3-yl)-N-methyl-4-trifluoromethylbenzamide hydrobromide]
4 | 189 to 201 °C | Br.CN(C(=O)c1ccc(C(F)(F)F)cc1)c1ccc(Oc2ccc3c(c2)cc(C(=O)N2CCN(Cc4ccccc4)CC2)n3C)nc1 [Example 329, N-{6-[2-(4-Benzylpiperazine-1-carbonyl)-1-methyl-1H-indol-5-yl-oxy]pyridin-3-yl}-N-methyl-4-trifluoromethylbenzamide hydrobromide]
5 | 210 to 213 °C | Br.CN(C(=O)c1ccc(Cl)c(Cl)c1)c1ccc(Oc2ccc3c(c2)cc(C(=O)N2CCN(Cc4ccccc4)CC2)n3C)nc1 [Example 330, N-{6-[2-(4-Benzylpiperazine-1-carbonyl)-1-methyl-1H-indol-5-yl-oxy]pyridin-3-yl}-3,4-dichloro-N-methylbenzamide hydrobromide]
6 | 208 to 210 °C | Cn1c(C(=O)N2CCN(C3CCOCC3)CC2)cc2cc(Oc3ccc(NS(=O)(=O)c4ccc(Cl)c(Cl)c4)cn3)ccc21 [Example 331, 3,4-Dichloro-N-(6-{1-methyl-2-[4-(tetrahydropyran-4-yl)-piperazine-1-carbonyl]-1H-indol-5-yloxy}pyridin-3-yl)-benzenesulfonamide]
7 | 174 to 178 °C | Cn1c(C(=O)N2CCN(C3CCOCC3)CC2)cc2cc(Oc3ccc(NS(=O)(=O)c4ccc(C(F)(F)F)cc4)cn3)ccc21 [Example 332, N-(6-{1-Methyl-2-[4-(tetrahydropyran-4-yl)piperazine-1-carbonyl]-1H-indol-5-yloxy}pyridin-3-yl)-4-trifluoromethylbenzene-sulfonamide]
8 | 205 to 214 °C | Br.Cn1c(C(=O)N2CCN(Cc3ccc4c(c3)OCO4)CC2)cc2cc(Oc3ccc(NCc4ccc(Cl)c(Cl)c4)cn3)ccc21 [Example 333, (4-Benzo[1,3]dioxol-5-ylmethylpiperazin-1-yl)(5-{5-[(3,4-di-chlorophenyl)methylamino]pyridin-2-yloxy}-1-methyl-1H-indol-2-yl)methanone hydrobromide]
9 | 209 to 217 °C | Br.Cn1c(C(=O)N2CCN(Cc3ccccc3)CC2)cc2cc(Oc3ccc(NCc4ccc(Cl)c(Cl)c4)cn3)ccc21 [Example 334, (4-Benzylpiperazin-1-yl)(5-{5-[(3,4-dichlorophenyl)methylamino]-pyridin-2-yloxy}-1-methyl-1H-indol-2-yl)methanone hydrobromide]
10 | 211 to 215 °C | Br.CN(c1ccc(C(F)(F)F)cc1)c1ccc(Oc2ccc3c(c2)cc(C(=O)N2CCN(Cc4ccc5c(c4)OCO5)CC2)n3C)nc1 [Example 335, (4-Benzo[1,3]dioxol-5-ylmethylpiperazin-1-yl)(1-methyl-5-{5-[methyl(4-trifluoromethylphenyl)amino]pyridin-2-yloxy}-1H-indol-2-yl)methanone hydrobromide]
11 | 212 to 218 °C | Br.CN(c1ccc(C(F)(F)F)cc1)c1ccc(Oc2ccc3c(c2)cc(C(=O)N2CCN(Cc4ccccc4)CC2)n3C)nc1 [Example 336, (4-Benzylpiperazin-1-yl)(1-methyl-5-{5-[methyl(4-trifluoromethyl-phenyl)amino]pyridin-2-yloxyl}-1H-indol-2-yl)methanone hydrobromide]
12 | 167 to 174 °C | Br.CN(c1ccc(C(F)(F)F)cc1)c1ccc(Oc2ccc3c(c2)cc(C(=O)N2CCN(Cc4ccncc4)CC2)n3C)nc1 [Example 337, (1-Methyl-5-{5-[methyl(4-trifluoromethylphenyl)amino]pyridin-2-yloxy}-1H-indol-2-yl)(4-pyridin-4-ylmethylpiperazin-1-yl)-methanone hydrobromide]
13 | 251 to 255 °C (dec.) | Br.CN(C(=O)c1ccc(C(F)(F)F)cc1)c1ccc(Oc2ccc3c(c2)cc(C(=O)N2CCN(Cc4ccc(C#N)cc4)CC2)n3C)nc1 [Example 339, N-(6-{2-[4-(4-Cyanobenzyl)piperazine-1-carbonyl]-1-methyl-1H-indol-5-yloxy}pyridin-3-yl)-N-methyl-4-trifluoromethylbenzamide hydrobromide]
14 | 196 to 198 °C | Br.CCOc1ccc(CN2CCN(C(=O)c3cc4cc(Oc5ccc(NC(=O)c6ccc(C(F)(F)F)cc6)cn5)ccc4n3C)CC2)cc1OCC [Example 340, N-(6-{2-[4-(3,4-Diethoxybenzyl)piperazine-1-carbonyl]-1-methyl-1H-indol-5-yloxy}pyridin-3-yl)-4-trifluoromethylbenzamide hydrobromide]
15 | 213 to 216 °C | Br.CN(C(=O)c1ccc(C(F)(F)F)cc1)c1ccc(Oc2ccc3c(c2)cc(C(=O)N2CCN(Cc4ccc(OC(F)(F)F)cc4)CC2)n3C)nc1 [Example 343, N-Methyl-N-(6-{1-methyl-2-[4-(4-trifluoromethoxybenzyl)-piperazine-1-carbonyl]-1H-indol-5-yloxy}pyridin-3-yl)-4-tri-fluoromethylbenzamide hydrobromide]
16 | 179 to 183 °C | Br.CCn1c(C(=O)N2CCN(Cc3ccc4c(c3)OCO4)CC2)cc2cc(Oc3ccc(N(C)C(=O)c4ccc(C(F)(F)F)cc4)cn3)ccc21 [Example 344, N-{6-[2-(4-Benzo[1,3]dioxol-5-ylmethylpiperazine-1-carbonyl)-1-ethyl-1H-indol-5-yloxy]pyridin-3-yl}-N-methyl-4-trifluoromethyl-benzamide hydrobromide]
17 | 175 to 177 °C | Br.COc1ccc(CN2CCN(C(=O)c3cc4cc(Oc5ccc(N(C)C(=O)c6ccc(C(F)(F)F)cc6)cn5)ccc4n3C)CC2)cc1OC [Example 345, N-(6-{2-[4-(3,4-Dimethoxybenzyl)piperazine-1-carbonyl]-1-methyl-1H-indol-5-yloxy}pyridin-3-yl)-N-methyl-4-trifluoromethyl-benzamide hydrobromide]
18 | 171 to 172 °C | COc1ccc(CN2CCN(C(=O)c3cc4cc(Oc5ccc(N(C)C(=O)c6ccc(Cl)c(Cl)c6)cn5)ccc4n3C)CC2)cc1.O=C(O)/C=C\C(=O)O [Example 347, 3,4-Dichloro-N-(6-{2-[4-(4-methoxybenzyl)piperazine-1-carbonyl]-1-methyl-1H-indol-5-yloxy}pyridin-3-yl)-N-methylbenzamide maleate]
19 | 135 to 138 °C | COc1ccc(CN2CCN(C(=O)c3cc4cc(Oc5ccc(NC(=O)c6ccc(C(F)(F)F)cc6)cn5)ccc4n3C)CC2)cn1.O=C(O)/C=C\C(=O)O [Example 348, N-(6-{2-[4-(6-Methoxypyridin-3-ylmethyl)piperazine-1-carbonyl]-1-methyl-1H-indol-5-yloxy}pyridin-3-yl)-4-trifluoromethylbenzamide maleate]
20 | 244 to 247 °C (dec.) | Br.COc1ccc(CN2CCN(C(=O)c3cc4cc(Oc5ccc(NC(=O)c6ccc(Cl)c(Cl)c6)cn5)ccc4n3C)CC2)cc1 [Example 349, 3,4-Dichloro-N-(6-{2-[4-(4-methoxybenzyl)piperazine-1-carbonyl]-1-methyl-1H-indol-5-yloxy}pyridin-3-yl)benzamide hydrobromide]
21 | 233 to 235 °C | Br.COc1ccc(CN2CCN(C(=O)c3cc4cc(Oc5ccc(NC(=O)c6ccc(C(F)(F)F)cc6)cn5)ccc4n3C)CC2)cc1OC [Example 350, N-(6-{2-[4-(3,4-Dimethoxybenzyl)piperazine-1-carbonyl]-1-methyl-1H-indol-5-yloxy}pyridin-3-yl)-4-trifluoromethylbenzamide hydrobromide]
22 | 217 to 219 °C | Br.COc1cccc(CN2CCN(C(=O)c3cc4cc(Oc5ccc(N(C)C(=O)c6ccc(C(F)(F)F)cc6)cn5)ccc4n3C)CC2)c1 [Example 351, N-(6-{2-[4-(3-Methoxybenzyl)piperazine-1-carbonyl]-1-methyl-1H-indol-5-yloxy}pyridin-3-yl)-N-methyl-4-trifluoromethylbenzamide hydrobromide]
23 | 231 to 233 °C | Br.COc1cccc(CN2CCN(C(=O)c3cc4cc(Oc5ccc(NC(=O)c6ccc(C(F)(F)F)cc6)cn5)ccc4n3C)CC2)c1 [Example 353, N-(6-{2-[4-(3-Methoxybenzyl)piperazine-1-carbonyl]-1-methyl-1H-indol-5-yloxy}pyridin-3-yl)-4-trifluoromethylbenzamide hydrobromide]
24 | 142 to 144 °C | COc1ccccc1CN1CCN(C(=O)c2cc3cc(Oc4ccc(NC(=O)c5ccc(C(F)(F)F)cc5)cn4)ccc3n2C)CC1.O=C(O)C(=O)O [Example 354, N-(6-{2-[4-(2-Methoxybenzyl)piperazine-1-carbonyl]-1-methyl-1H-indol-5-yloxy}pyridin-3-yl)-4-trifluoromethylbenzamide oxalate]
25 | 140 to 142 °C | COc1ccccc1CN1CCN(C(=O)c2cc3cc(Oc4ccc(N(C)C(=O)c5ccc(C(F)(F)F)cc5)cn4)ccc3n2C)CC1.O=C(O)C(=O)O [Example 355, N-(6-{2-[4-(2-Methoxybenzyl)piperazine-1-carbonyl]-1-methyl-1H-indol-5-yloxy}pyridin-3-yl)-N-methyl-4-trifluoromethylbenzamide oxalate]
26 | 268 to 271 °C (dec.) | COc1ccccc1/C=C/CN1CCN(C(=O)c2cc3cc(Oc4ccc(NC(=O)c5ccc(C(F)(F)F)cc5)cn4)ccc3n2C)CC1.CS(=O)(=O)O [Example 358, N-[6-(2-{4-[(E)-3-(2-Methoxyphenyl)allyl]piperazine-1-carbonyl}-1-methyl-1H-indol-5-yloxy)pyridin-3-yl]-4-trifluoromethyl-benzamide methanesulfonate]
